Series [1] concerns peripheral blood mononuclear cells derived from a cancer patient. It is filed as cell-based, human. On the procedure:
Moreover, CTL-activating ability of these 19 peptides was directly examined in a ^51Cr-releasing test using toxicity to the target cells as an indicator. Specifically, the above-described PBMC, in which CTL was induced, was further recultured to proliferate in the presence of autologous APC, IL-2, and a corresponding peptide. At about day 21 to 28 after the start of reculturing, PBMC was collected and cytotoxicity thereof was tested again by measuring IFN-γ and by a 6-h ^51Cr-releasing test. PBMC of the cancer patient, which was stimulated by these peptides, lysed the HLA-A2^+ tumor cells. However, the autologous EBV-B cells and the T cells stimulated by PHA, both of which were derived from normal cells and were expressing HLA-A2, and the HLA-A2^− tumor cell RERF-LC-MS, were not lysed.

The test system of another series is OK-CTLp. As to the kind of experiment: IFN-γ production by OK-CTLp against COS-7 cells cotransfected with cDNA clone and HLA-A0207 cDNA (ELISA). It is filed as cell-based, human. The conditions noted are these: result in words. On the procedure: 200 ng of the above-described plasmid DNA pool or clones of Panc-1 cell cDNA library was mixed with 200 ng of the cDNA of HLA-A0207 in 100 μl of Opti-MEM (Invitrogen Corp.) for 30 min. 50 μl of this mixture was added to COS-7 cells (5×10^3) and incubated for 6 h in a 96-well U-bottom type microculture plate (Nunc Corp.) for co-tranduction. Then, RPMI-1640 culture medium containing 10% FCS was added to and culturing was carried out for 2 days, followed by the addition of OK-CTLp (5×10^4) to each well. After a further 18 h incubation, 100 μl of the supernatant was collected and IFN-γ production was measured thereon by ELISA. […]
From the genes encoding the tumor antigens (Biochim. Biophys. Res. Commun., 281:936-944, 2001), which were detected by the SEREX (Serological Analysis of Recombinant cDNA Expression Libraries) method (Proc. Natl Acad. Sci. USA, 92:11910-[…], 1995) and already reported, two tumor antigen genes, KM-PA-2 and KM-PA-4; which can activate HLA-A2-restricted CTL, were found by using the same method as that of Example 2. […] However, among 1500 or more kinds of tumor antigens detected by this method, those identified as tumor antigens capable of inducing both cell-mediated immunity and humoral immunity are only MAGE-1, tyrosinase, and NY-ESO-1. […]

The target of another series is T1, HLA-A0201 molecule (Homo sapiens, UniProt P04439, D140Y/D185E/D98H/E176V/E277Q/G131W/G231S/I119V/I121R/I166T/I218V/L300P/L318F/N151K/N90K/P208A/P217A/Q86G/Q94H/R138H/R169H/T345S).
T1 construct: endogenous in cells; host or cells: T2 cells (TAP-deficient mutant line)
Briefly: Binding activity of peptide to HLA-A0201 molecule on T2 cells (FACScan, MFI). The conditions noted are these: peptide 10 μM, positive and negative controls 898 and 490.

The subject of series [2] is peripheral blood mononuclear cells derived from a cancer patient. Briefly: CTL induction by peptide from autologous PBMC of cancer patient, IFN-γ production on recognition of target cells (Example 5). It is filed as cell-based, human. The conditions noted are these: for IFN-γ production from peripheral blood mononuclear cells in recognition of target cells: PBMC stimulated with 10 μM peptide.

Series [3] has the same test system. The description is as above. Particulars: PBMC stimulated with 10 μM peptide. The class given is cell-based, human.

Peptide text beside a SMILES is read from it.

Protocol for HLA-A0201 molecule: Binding activity of the peptide to the HLA-A0201 molecule was tested using a T2 cell mutant strain (Cancer Res., 54:1071-1076, 1994. ) The T2 cell expresses the HLA-A2 molecule on a cell surface without binding to a peptide, because of deficiency of TAP. Specifically, the synthesized peptide (10 μM) and the T2 cells were incubated at 26° C. for 3 h and, subsequently, incubated in 5% CO2 and 95% air at 37° C. for 3 h.
Binding affinity of the peptides to HLA-A0201 molecule was expressed as a relative mean fluorescence intensity (MFI) of the HLA-A2 molecule.

`CC(C)C[C@H](NC(=O)CN)C(=O)N[C@@H](CC(C)C)C(=O)N[C@@H](Cc1ccccc1)C(=O)N[C@@H](CC(C)C)C(=O)N[C@@H](Cc1c[nH]cn1)C(=O)N[C@H](C(=O)N[C@@H](CCCNC(=N)N)C(=O)N[C@H](C(=O)O)[C@@H](C)O)[C@@H](C)O` [Peptide P17] (H-GLLFLHTRT-OH): the “Cytotoxicity of peptide-stimulated PBMC to the autologous EBV-B cells” value (“Cytotoxicity … to the autologous EBV-B cells” for short) in series [1] is listed as “showed cytotoxicity”.
For the compound “KM-PA-4: tumor antigen gene from CFPAC-1 (SEREX), 1841 bp, identical to coactosin-like protein (CLP)”, the “Recognition by OK-CTLp of COS-7 cells cotransfected with the cDNA and HLA-A0207 (IFN-γ production)” value in the series on OK-CTLp is on record as “induced IFN-γ production from OK-CTLp”.
Take “LIADETSGL [Peptide P3, Gene 1 (UBE2V) 85-93]”: in the series with HLA-A0201 molecule, the “MFI (relative mean fluorescence intensity of the HLA-A2 molecule; binding affinity to HLA-A0201)” value is 910. For the same compound, the “Recognition of tumor cells by PBMC stimulated in vitro with peptide (IFN-γ production)” value in series [2] (SW620, CA9-22 and Panc-1 HLA-A2+ tumor cells, result in words) is recorded as “produced IFN-γ in a significant amount”. Further, the “IFN-γ production from peripheral blood mononuclear cells in recognition of target cells” value was determined as 58 pg/mL in series [2] (target CA9-22 (HLA-A0207/24)); 289 pg/mL in series [2] (target Panc-1 (HLA-A0201/11)); 188 pg/mL in series [2] (target SW620 (HLA-A0201/24)); 44 pg/mL in series [3] (target COLO320 (HLA-A24/24)); 0 pg/mL in series [3] (target QG56 (HLA-A26/26)); 0 pg/mL in series [3] (target RERF-LC-MS (HLA-A11/11)).
Regarding “KM-PA-2: tumor antigen gene from CFPAC-1 (SEREX), 2060 bp [AB060694], homologous to KIAA0124 / Bop1”, the “Recognition by OK-CTLp of COS-7 cells cotransfected with the cDNA and HLA-A0207 (IFN-γ production)” value in the series on OK-CTLp is “induced IFN-γ production from OK-CTLp”.
With `CC[C@H](C)[C@H](NC(=O)[C@@H](NC(=O)[C@@H](N)CCCNC(=N)N)[C@@H](C)CC)C(=O)N[C@@H](Cc1ccc(O)cc1)C(=O)N[C@@H](CC(=O)O)C(=O)N[C@@H](CCCNC(=N)N)C(=O)N[C@@H](CCCCN)C(=O)N[C@@H](Cc1ccccc1)C(=O)N[C@@H](CC(C)C)C(=O)O` [Peptide P14] (H-RIIYDRKFL-OH), the “Cytotoxicity … to the autologous EBV-B cells” value in series [1] is on record as “showed cytotoxicity”.
As for `CC(C)C[C@H](NC(=O)[C@H](CCC(N)=O)NC(=O)[C@@H](N)CCC(N)=O)C(=O)N[C@@H](CS)C(=O)N[C@H](C(=O)N[C@@H](Cc1ccc(O)cc1)C(=O)N[C@@H](Cc1c[nH]c2ccccc12)C(=O)N[C@H](C(=O)N[C@H](C(=O)O)C(C)C)[C@@H](C)O)C(C)C` [Peptide P19] (H-QQLCVYWTV-OH), the “Cytotoxicity … to the autologous EBV-B cells” value in series [1] was “showed high cytotoxicity”.
The same measure, in the same setting: under `CC[C@H](C)[C@H](N)C(=O)N[C@H](C(=O)N[C@@H](Cc1ccc(O)cc1)C(=O)N[C@@H](CC(=O)O)C(=O)N[C@@H](CCCNC(=N)N)C(=O)N[C@@H](CCCCN)C(=O)N[C@@H](Cc1ccccc1)C(=O)N[C@@H](CC(C)C)C(=O)N[C@@H](CCSC)C(=O)O)[C@@H](C)CC` [Peptide P15] (H-IIYDRKFLM-OH) stands “showed cytotoxicity”.

The values are drawn from patent US7524930B2, “Tumor antigen” (Green Peptide Co., Ltd, priority 2003, dated 2009).
